According to the supplement of paper PMC10307832:

Experiments:
[1] = compound: CC(C)(C)c1cc(NC(=O)Nc2ccc(-c3cn4c(n3)sc3cc(OCCN5CCOCC5)ccc34)cc2)no1 [Quizartinib] + Cc1nc(Nc2ncc(C(=O)Nc3c(C)cccc3Cl)s2)cc(N2CCN(CCO)CC2)n1 [Dasatinib] (partner 0.075 µM); assay: relative viability (nuclei count vs DMSO), 5 days (fraction); higher = more cells survive
Method in brief: (§1)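 Relative viability equals treated-well nuclei counts divided by vehicle-well nuclei counts. Counts came from 4× images of lung cancer cell lines grown in 1536-well plates for 5 days after pin-tool dosing on the day after seeding. Dosing used one drug alone or a fixed anchor-drug dose plus five library-drug doses (not always all listed) in √10 steps, and values are medians of duplicate plates.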

[2] = compound: CC(C)(C)c1cc(NC(=O)Nc2ccc(-c3cn4c(n3)sc3cc(OCCN5CCOCC5)ccc34)cc2)no1 [Quizartinib] + CCNC(=O)c1noc(-c2cc(C(C)C)c(O)cc2O)c1-c1ccc(CN2CCOCC2)cc1 [Luminespib] (partner 0.01 µM); assay: as above
Method in brief: as §1

Cell Line	relative viability ([1]; first compound 0.001 µM)	relative viability ([1]; first compound 0.003162 µM)	relative viability ([1]; first compound 0.01 µM)	relative viability ([1]; first compound 0.03162 µM)	relative viability ([1]; first compound 0.1 µM)	relative viability ([2]; first compound 0.001 µM)	relative viability ([2]; first compound 0.003162 µM)	relative viability ([2]; first compound 0.01 µM)	relative viability ([2]; first compound 0.03162 µM)	relative viability ([2]; first compound 0.1 µM)
NCI-H322M	0.208	0.255	0.27	0.265	0.266	0.81	0.92	0.944	0.448	0.895
NCI-H2009	0.283	0.29	0.252	0.326	0.26	0.915	1.01	1.07	0.967	1.03
UMC-11	–	0.386	0.487	0.434	0.454	–	0.954	1.13	1.02	1.14
EPLC-272H	0.326	0.366	0.4	0.38	0.377	0.439	0.418	0.44	0.399	0.168
